In PubChem BioAssay AID2060886 (Molecular Pharmacology Branch, DTP, NCI, 2025):

Tested on: 653999-131-R-J2-PDC complex spheroids, growth inhibition
Assay: Anticancer human tumor 653999-131-R-J2-PDC patient-derived lung adenocarcinoma cell line growth inhibition [RAS]
Details: for viability, T/C: stronger effect = lower value
Summary of the method: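 Tumour cells grown as complex spheroids with HUVEC endothelial cells and mesenchymal stem cells, treated with RAS pathway inhibitor combinations. Each agent spans half-log steps from near clinical Cmax, or 10 microM where Cmax is unknown.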

[1] = curve of first compound, second compound 0.000949 µM
[2] = curve of first compound, second compound 0.003 µM
[3] = curve of first compound, second compound 0.00949 µM
[4] = curve of first compound, second compound 0.03 µM
[5] = curve of first compound, second compound 0.0949 µM
[6] = curve of first compound, second compound 0.3 µM
[7] = second compound 0.000949 µM, first compound 0.0316 µM
[8] = second compound 0.000949 µM, first compound 0.1 µM
[9] = second compound 0.000949 µM, first compound 0.316 µM
[10] = second compound 0.000949 µM, first compound 1 µM
[11] = second compound 0.003 µM, first compound 0.0316 µM
[12] = second compound 0.003 µM, first compound 0.1 µM
[13] = second compound 0.003 µM, first compound 0.316 µM
[14] = second compound 0.003 µM, first compound 1 µM
[15] = second compound 0.00949 µM, first compound 0.0316 µM
[16] = second compound 0.00949 µM, first compound 0.1 µM
[17] = second compound 0.00949 µM, first compound 0.316 µM
[18] = second compound 0.00949 µM, first compound 1 µM
[19] = second compound 0.03 µM, first compound 0.0316 µM
[20] = second compound 0.03 µM, first compound 0.1 µM
[21] = second compound 0.03 µM, first compound 0.316 µM
[22] = second compound 0.03 µM, first compound 1 µM
[23] = second compound 0.0949 µM, first compound 0.0316 µM
[24] = second compound 0.0949 µM, first compound 0.1 µM
[25] = second compound 0.0949 µM, first compound 0.316 µM
[26] = second compound 0.0949 µM, first compound 1 µM
[27] = second compound 0.3 µM, first compound 0.0316 µM
[28] = second compound 0.3 µM, first compound 0.1 µM
[29] = second compound 0.3 µM, first compound 0.316 µM
[30] = second compound 0.3 µM, first compound 1 µM
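Note: spheroids exposed to the agents for seven days before the readout.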

`NC1c2ccccc2OC12CCN(c1cnc3c(N4CCCc5ncccc54)n[nH]c3n1)CC2` (stereo not drawn) + CCn1c(-c2cccnc2C(C)OC)c2c3cc(ccc31)N1CCOC(CC(NC(=O)C(C(C)C)N(C)C(=O)C3(F)CCN(C(=O)C#CC(C)(C)N(C)C)CC3)C(=O)N3CCCC(N3)C(=O)OCC(C)(C)C2)C1 was tested, and the IC50 [1] was > 10000 nM, the IC50 [2] was > 10000 nM and the IC50 [3] was > 10000 nM. The IC50 [4] was > 10000 nM, the IC50 [5] was > 10000 nM and the IC50 [6] was > 10000 nM. The viability, T/C [7] was 74.6%, the viability, T/C [8] was 75.4% and the viability, T/C [9] was 82.6%. The viability, T/C [10] was 71.6%, the viability, T/C (second compound 0.000949 µM, first compound 3.16 µM) was 71.9% and the viability, T/C (second compound 0.000949 µM, first compound 10 µM) was 85.5%. It also gave a viability, T/C [11] of 83.4%, a viability, T/C [12] of 83.3% and a viability, T/C [13] of 75.5%. It also gave a viability, T/C [14] of 67%, a viability, T/C (second compound 0.003 µM, first compound 3.16 µM) of 75.8% and a viability, T/C (second compound 0.003 µM, first compound 10 µM) of 77.5%. For the same compound, the viability, T/C [15] was 70.3%, the viability, T/C [16] was 82.2% and the viability, T/C [17] was 67.6%. For the same compound, the viability, T/C [18] was 76.2%, the viability, T/C (second compound 0.00949 µM, first compound 3.16 µM) was 72.3% and the viability, T/C (second compound 0.00949 µM, first compound 10 µM) was 65.3%. It also gave a viability, T/C [19] of 68.9%, a viability, T/C [20] of 66.2% and a viability, T/C [21] of 64.1%. It also gave a viability, T/C [22] of 72%, a viability, T/C (second compound 0.03 µM, first compound 3.16 µM) of 76.2% and a viability, T/C (second compound 0.03 µM, first compound 10 µM) of 67.7%. It also gave a viability, T/C [23] of 78.6%, a viability, T/C [24] of 71.4% and a viability, T/C [25] of 73.5%. The viability, T/C [26] was 71.9%, the viability, T/C (second compound 0.0949 µM, first compound 3.16 µM) was 72.1% and the viability, T/C (second compound 0.0949 µM, first compound 10 µM) was 73.5%. For the same compound, the viability, T/C [27] was 83.8%, the viability, T/C [28] was 72.2% and the viability, T/C [29] was 87.3%. It also gave a viability, T/C [30] of 79.6%, a viability, T/C (second compound 0.3 µM, first compound 3.16 µM) of 70% and a viability, T/C (second compound 0.3 µM, first compound 10 µM) of 71.7%.
In the case of `CC(C)n1nc(-c2ccc3oc(N)nc3c2)c2c(N)ncnc21` + C#Cc1c(F)ccc2cc(O)cc(-c3ncc4c(N5CC6CCC(C5)N6)nc(OCC56CCCN5CC(F)C6)nc4c3F)c12, the IC50 (curve of first compound, second compound 0.0316 µM) is reported as 13.6 nM, the IC50 (curve of first compound, second compound 0.1 µM) is reported as 8.56 nM and the IC50 (curve of first compound, second compound 0.316 µM) is reported as 2.52 nM. The IC50 (curve of first compound, second compound 1 µM) was < 0.316 nM, the IC50 (curve of first compound, second compound 3.16 µM) was < 0.316 nM and the IC50 (curve of first compound, second compound 10 µM) was < 0.316 nM. The viability, T/C (second compound 0.0316 µM, first compound 0.000316 µM) was 97.1%, the viability, T/C (second compound 0.0316 µM, first compound 0.001 µM) was 97.5% and the viability, T/C (second compound 0.0316 µM, first compound 0.00316 µM) was 74.1%. The viability, T/C (second compound 0.0316 µM, first compound 0.01 µM) was 57.8%, the viability, T/C (second compound 0.0316 µM, first compound 0.0316 µM) was 34.1% and the viability, T/C (second compound 0.0316 µM, first compound 0.1 µM) was 24.7%. For the same compound, the viability, T/C (second compound 0.1 µM, first compound 0.000316 µM) was 94.5%, the viability, T/C (second compound 0.1 µM, first compound 0.001 µM) was 99.5% and the viability, T/C (second compound 0.1 µM, first compound 0.00316 µM) was 68.3%. It also gave a viability, T/C (second compound 0.1 µM, first compound 0.01 µM) of 49%, a viability, T/C (second compound 0.1 µM, first compound 0.0316 µM) of 28.1% and a viability, T/C (second compound 0.1 µM, first compound 0.1 µM) of 21.3%. For the same compound, the viability, T/C (second compound 0.316 µM, first compound 0.000316 µM) was 78%, the viability, T/C (second compound 0.316 µM, first compound 0.001 µM) was 48.8% and the viability, T/C (second compound 0.316 µM, first compound 0.00316 µM) was 57.9%. It also gave a viability, T/C (second compound 0.316 µM, first compound 0.01 µM) of 35.3%, a viability, T/C (second compound 0.316 µM, first compound 0.0316 µM) of 20.2% and a viability, T/C (second compound 0.316 µM, first compound 0.1 µM) of 16.2%. It also gave a viability, T/C (second compound 1 µM, first compound 0.000316 µM) of 42.1%, a viability, T/C (second compound 1 µM, first compound 0.001 µM) of 38.6% and a viability, T/C (second compound 1 µM, first compound 0.00316 µM) of 32.3%. For the same compound, the viability, T/C (second compound 1 µM, first compound 0.01 µM) was 27.1%, the viability, T/C (second compound 1 µM, first compound 0.0316 µM) was 16.1% and the viability, T/C (second compound 1 µM, first compound 0.1 µM) was 10.1%. The viability, T/C (second compound 3.16 µM, first compound 0.000316 µM) was 42%, the viability, T/C (second compound 3.16 µM, first compound 0.001 µM) was 43.8% and the viability, T/C (second compound 3.16 µM, first compound 0.00316 µM) was 24.3%. For the same compound, the viability, T/C (second compound 3.16 µM, first compound 0.01 µM) was 20.1%, the viability, T/C (second compound 3.16 µM, first compound 0.0316 µM) was 10.5% and the viability, T/C (second compound 3.16 µM, first compound 0.1 µM) was 8.31%. For the same compound, the viability, T/C (second compound 10 µM, first compound 0.000316 µM) was 22.6%, the viability, T/C (second compound 10 µM, first compound 0.001 µM) was 27.4% and the viability, T/C (second compound 10 µM, first compound 0.00316 µM) was 17%. It also gave a viability, T/C (second compound 10 µM, first compound 0.01 µM) of 11.6%, a viability, T/C (second compound 10 µM, first compound 0.0316 µM) of 7.55% and a viability, T/C (second compound 10 µM, first compound 0.1 µM) of 5.84%.
In the case of `CCc1c2c(nc3ccc(O)cc13)-c1cc3c(c(=O)n1C2)COC(=O)[C@]3(O)CC`, the viability, T/C (compound 0.000949 µM) is reported as 85% [middle of 4 runs], the viability, T/C (compound 0.003 µM) is reported as 66.5% [middle of 4 runs] and the viability, T/C (compound 0.00949 µM) is reported as 49.5% [middle of 4 runs]. The viability, T/C (compound 0.03 µM) was 38.3% [middle of 4 runs], the viability, T/C (compound 0.0949 µM) was 26.5% [middle of 4 runs] and the viability, T/C (compound 0.3 µM) was 13.7% [middle of 4 runs]. For the same compound, the IC50 (curve of compound) was 9.95 nM [middle of 4 runs].
In the case of `C=CC(=O)N1CCN(c2nc(OCC3CCCN3C)nc3c(F)c(-c4nc(N)cc(C)c4C(F)(F)F)c(Cl)cc23)C(C)C1` (stereo not drawn) + CCn1c(-c2cc(N3CCN(C)CC3)cnc2C(C)OC)c2c3cc(ccc31)-c1csc(n1)CC(NC(=O)C1CC1C)C(=O)N1CCCC(N1)C(=O)OCC(C)(C)C2, the IC50 [1] is reported as > 1000 nM, the IC50 [2] is reported as > 1000 nM and the IC50 [3] is reported as 32.4 nM. For the same compound, the IC50 [4] was < 3.16 nM, the IC50 [5] was < 3.16 nM and the IC50 [6] was < 3.16 nM. It also gave a viability, T/C (second compound 0.000949 µM, first compound 0.00316 µM) of 83.2%, a viability, T/C (second compound 0.000949 µM, first compound 0.01 µM) of 82.7% and a viability, T/C [7] of 82.1%. It also gave a viability, T/C [8] of 78.4%, a viability, T/C [9] of 92% and a viability, T/C [10] of 86.1%. It also gave a viability, T/C (second compound 0.003 µM, first compound 0.00316 µM) of 57.9%, a viability, T/C (second compound 0.003 µM, first compound 0.01 µM) of 63% and a viability, T/C [11] of 59.1%. For the same compound, the viability, T/C [12] was 65.7%, the viability, T/C [13] was 63.3% and the viability, T/C [14] was 75.6%. For the same compound, the viability, T/C (second compound 0.00949 µM, first compound 0.00316 µM) was 50%, the viability, T/C (second compound 0.00949 µM, first compound 0.01 µM) was 57.5% and the viability, T/C [15] was 50.2%. The viability, T/C [16] was 40.4%, the viability, T/C [17] was 40.2% and the viability, T/C [18] was 42.6%. The viability, T/C (second compound 0.03 µM, first compound 0.00316 µM) was 46.5%, the viability, T/C (second compound 0.03 µM, first compound 0.01 µM) was 35.3% and the viability, T/C [19] was 43.2%. For the same compound, the viability, T/C [20] was 32%, the viability, T/C [21] was 37.3% and the viability, T/C [22] was 34.9%. It also gave a viability, T/C (second compound 0.0949 µM, first compound 0.00316 µM) of 28.9%, a viability, T/C (second compound 0.0949 µM, first compound 0.01 µM) of 29.4% and a viability, T/C [23] of 26.7%. The viability, T/C [24] was 38.9%, the viability, T/C [25] was 38.6% and the viability, T/C [26] was 35.9%. It also gave a viability, T/C (second compound 0.3 µM, first compound 0.00316 µM) of 29.5%, a viability, T/C (second compound 0.3 µM, first compound 0.01 µM) of 27.5% and a viability, T/C [27] of 21.8%. For the same compound, the viability, T/C [28] was 32.6%, the viability, T/C [29] was 28.3% and the viability, T/C [30] was 26.1%.
